Patent publication US20070249827A1, “Meropenem Intermediatein in Crystalling Form” (SANDOZ AG, priority 2004, published 2007)

Experiment: Stability comparison between crystalline form and amorphous form (storage 72 h at 70° C.)
Type: physicochemical
Details: for content, starting value / sum of all by-products, starting value: before storage

SMILES | content after 72 h at 70° C. | sum of all by-products after 72 h at 70° C. | content, starting value | sum of all by-products, starting value
C[C@@H](O)[C@H]1C(=O)N2C(C(=O)OCc3ccc([N+](=O)[O-])cc3)=C(S[C@H]3C[C@@H](C(=O)N(C)C)N(C(=O)OCc4ccc([N+](=O)[O-])cc4)C3)[C@H](C)[C@H]12 [Compound of formula I in amorphous form, (4R,5S,6S)-(p-nitrobenzyl) 3-[[(3S,5S)-1(-p-nitrobenzyloxycarbonyl)-5-(dimethylaminocarbonyl)-3-pyrrolidinyl]thio]-6-[(1R)-1-hydroxyethyl]-4-methyl-7-oxo-1-azabicyclo[3.2.0]hept-2-ene-2-carboxylate] | 90.8% by weight | sum of all by-products 5.7% | 92.4% by weight | 2.5%
C[C@@H](O)[C@H]1C(=O)N2C(C(=O)OCc3ccc([N+](=O)[O-])cc3)=C(S[C@H]3C[C@@H](C(=O)N(C)C)N(C(=O)OCc4ccc([N+](=O)[O-])cc4)C3)[C@H](C)[C@H]12 [Compound of formula I in crystalline form] [(4R,5S,6S)-(p-nitrobenzyl) 3-[[(3S,5S)-1(-p-nitrobenzyloxycarbonyl)-5-(dimethylaminocarbonyl)-3-pyrrolidinyl]thio]-6-[(1R)-1-hydroxyethyl]-4-methyl-7-oxo-1-azabicyclo[3.2.0]hept-2-ene-2-carboxylate] | 99.1% by weight | <0.3% | 99.4% by weight | <0.3%
